The source of these data is ChEMBL document CHEMBL4330147, “Adiponectin-Secretion-Promoting Phenylethylchromones from the Agarwood of Aquilaria malaccensis” (J Nat Prod, 2019).

Assay [1] concerns the target T1, Glucocorticoid receptor (Homo sapiens) (UniProt P04150).
T1 sequence (whole entry): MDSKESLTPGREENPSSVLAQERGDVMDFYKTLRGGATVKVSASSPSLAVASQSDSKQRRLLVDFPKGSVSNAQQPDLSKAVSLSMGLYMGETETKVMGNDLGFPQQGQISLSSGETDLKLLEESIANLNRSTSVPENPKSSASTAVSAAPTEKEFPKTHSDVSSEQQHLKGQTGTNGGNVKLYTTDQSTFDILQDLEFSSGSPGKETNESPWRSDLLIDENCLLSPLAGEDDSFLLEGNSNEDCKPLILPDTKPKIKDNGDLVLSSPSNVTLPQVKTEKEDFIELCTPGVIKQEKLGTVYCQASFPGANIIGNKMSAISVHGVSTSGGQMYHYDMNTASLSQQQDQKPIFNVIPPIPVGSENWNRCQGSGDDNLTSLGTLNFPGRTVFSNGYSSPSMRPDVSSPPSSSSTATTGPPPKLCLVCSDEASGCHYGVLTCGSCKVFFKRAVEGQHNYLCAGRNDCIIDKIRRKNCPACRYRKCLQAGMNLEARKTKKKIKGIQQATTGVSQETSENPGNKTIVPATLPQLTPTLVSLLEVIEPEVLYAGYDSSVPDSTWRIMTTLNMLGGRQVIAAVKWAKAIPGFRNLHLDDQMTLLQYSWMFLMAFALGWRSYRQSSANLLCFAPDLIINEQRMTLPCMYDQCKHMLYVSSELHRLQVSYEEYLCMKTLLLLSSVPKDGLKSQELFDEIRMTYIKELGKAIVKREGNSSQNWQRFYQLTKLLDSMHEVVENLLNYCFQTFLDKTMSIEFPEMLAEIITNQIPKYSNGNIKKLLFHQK
Description: Binding affinity to GR (unknown origin) at 30 uM by TR-FRET assay.

A short description of another assay: cells. Particulars: Homo sapiens, 120 h.
The species named for another assay is Homo sapiens. Description: Induction of adipogenesis in human bone marrow-derived mesenchymal stem cells assessed as increase in adiponectin production at 30 uM measured on day 5 in presence of IDX by ELISA. The format is functional.
In assay [2] the target is T2, Peroxisome proliferator-activated receptor gamma (Homo sapiens) (UniProt P37231).
T2 sequence (whole entry): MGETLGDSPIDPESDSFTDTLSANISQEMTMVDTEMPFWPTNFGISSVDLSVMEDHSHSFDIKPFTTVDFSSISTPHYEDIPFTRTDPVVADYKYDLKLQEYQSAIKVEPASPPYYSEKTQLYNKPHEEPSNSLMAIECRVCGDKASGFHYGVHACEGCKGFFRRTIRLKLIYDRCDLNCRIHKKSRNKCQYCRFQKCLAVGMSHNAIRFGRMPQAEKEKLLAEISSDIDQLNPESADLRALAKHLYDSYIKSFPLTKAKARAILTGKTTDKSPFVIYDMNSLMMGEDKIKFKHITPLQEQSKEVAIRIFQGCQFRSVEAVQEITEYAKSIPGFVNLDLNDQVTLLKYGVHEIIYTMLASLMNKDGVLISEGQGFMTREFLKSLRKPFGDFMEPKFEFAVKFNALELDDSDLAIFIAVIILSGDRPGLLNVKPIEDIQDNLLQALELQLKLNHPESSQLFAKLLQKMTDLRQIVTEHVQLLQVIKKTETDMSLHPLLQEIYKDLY
Description: (§1) Binding affinity to PPARgamma (unknown origin) by TR-FRET assay.

Assay [3] has as its target T3, Peroxisome proliferator-activated receptor gamma (Homo sapiens, UniProt P37231).
T3 sequence (P37231 whole entry): T2 sequence (whole entry)
The assay is described as §1.

Assay [4] deals with T4, Peroxisome proliferator-activated receptor alpha (Homo sapiens) (UniProt Q07869).
T4 sequence (whole entry): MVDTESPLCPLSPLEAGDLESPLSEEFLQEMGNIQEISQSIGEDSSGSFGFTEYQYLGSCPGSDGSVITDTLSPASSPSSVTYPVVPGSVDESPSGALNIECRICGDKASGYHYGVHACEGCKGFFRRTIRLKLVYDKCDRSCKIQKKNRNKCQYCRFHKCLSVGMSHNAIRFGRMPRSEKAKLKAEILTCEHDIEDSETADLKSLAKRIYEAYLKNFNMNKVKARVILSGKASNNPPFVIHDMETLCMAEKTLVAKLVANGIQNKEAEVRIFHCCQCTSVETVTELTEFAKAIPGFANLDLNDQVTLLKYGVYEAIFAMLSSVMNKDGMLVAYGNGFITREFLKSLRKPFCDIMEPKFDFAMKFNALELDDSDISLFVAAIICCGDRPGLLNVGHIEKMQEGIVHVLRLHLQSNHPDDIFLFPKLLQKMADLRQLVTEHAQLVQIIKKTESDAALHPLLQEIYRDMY
Briefly: Binding affinity to PPARalpha (unknown origin) at 30 uM by TR-FRET assay.

Assay [5] has as its target T5, Oxysterols receptor LXR-alpha (Homo sapiens) (UniProt Q13133).
T5 sequence (whole entry): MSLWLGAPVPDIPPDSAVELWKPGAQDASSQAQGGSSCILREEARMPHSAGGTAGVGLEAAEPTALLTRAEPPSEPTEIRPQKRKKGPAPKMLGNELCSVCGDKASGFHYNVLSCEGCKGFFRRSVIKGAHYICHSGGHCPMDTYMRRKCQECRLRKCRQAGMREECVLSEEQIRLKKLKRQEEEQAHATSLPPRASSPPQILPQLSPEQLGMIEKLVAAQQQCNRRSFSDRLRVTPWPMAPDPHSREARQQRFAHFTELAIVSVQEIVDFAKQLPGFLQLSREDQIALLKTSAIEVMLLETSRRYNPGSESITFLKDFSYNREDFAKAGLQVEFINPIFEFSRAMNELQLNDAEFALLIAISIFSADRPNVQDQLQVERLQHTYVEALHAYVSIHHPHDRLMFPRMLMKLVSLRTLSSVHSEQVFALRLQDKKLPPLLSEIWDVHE
Briefly: Binding affinity to LXRalpha (unknown origin) at 30 uM by TR-FRET assay.

The target of assay [6] is T6, Peroxisome proliferator-activated receptor delta (Homo sapiens) (UniProt Q03181).
T6 sequence (whole entry): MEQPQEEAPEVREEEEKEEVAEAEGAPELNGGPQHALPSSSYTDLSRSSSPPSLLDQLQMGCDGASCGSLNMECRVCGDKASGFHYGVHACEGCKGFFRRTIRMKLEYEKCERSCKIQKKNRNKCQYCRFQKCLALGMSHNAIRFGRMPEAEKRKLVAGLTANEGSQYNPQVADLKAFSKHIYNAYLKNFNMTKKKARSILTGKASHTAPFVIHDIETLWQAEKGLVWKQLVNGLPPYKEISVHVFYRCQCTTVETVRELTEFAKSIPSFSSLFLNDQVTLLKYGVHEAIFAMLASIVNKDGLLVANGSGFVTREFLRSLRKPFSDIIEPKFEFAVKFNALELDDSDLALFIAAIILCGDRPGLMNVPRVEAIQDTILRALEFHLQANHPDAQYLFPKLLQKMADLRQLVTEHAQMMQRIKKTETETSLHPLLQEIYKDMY
Description: Binding affinity to PPARdelta (unknown origin) at 30 uM by TR-FRET assay.

The target in assay [7] is T2, Peroxisome proliferator-activated receptor gamma (Homo sapiens). Description: Inhibition of labeled ligand binding to PPARgamma (unknown origin) at 30 uM by TR-FRET assay relative to control.
Assay [8] has the same target. Description: Inhibition of labeled ligand binding to PPARgamma (unknown origin) at 60 uM by TR-FRET assay relative to control.
A short description of assay [9]: Induction of adipogenesis in human bone marrow-derived mesenchymal stem cells assessed as increase in adiponectin production at 30 uM measured on day 5 in presence of IDX by ELISA relative to control. The format is functional.
Assay [10] is described as follows: Induction of adipogenesis in human bone marrow-derived mesenchymal stem cells assessed as increase in adiponectin production at 60 uM measured on day 5 in presence of IDX by ELISA relative to pioglitazone. Format: functional. As to conditions: 120 h.

The source made the active and inactive calls. The rule behind the calls is not given here.

Description for cells: Induction of adipogenesis in human bone marrow-derived mesenchymal stem cells assessed as increase in adiponectin production measured on day 5 in presence of IDX by ELISA

Regarding `COc1ccc2c(=O)cc(CCc3ccccc3)oc2c1`, the result in assay [1], in assay [4], in [5] and in assay [6] was inactive. The compound also yielded an EC50 in “cells” of 20.3 µM. In the assay listed under Homo sapiens, the result was Active. The Activity entry in assay [2] was “Dose-dependent effect”. In assay [3], this compound yielded a Ki of 14.9 µM. In addition, in assay [7], the inhibition came out at 50.3%.

On to `O=c1cc(CCc2ccccc2)oc2c(Cl)cc(O)cc12`, for which the result in the assay filed under Homo sapiens was Active.

The compound `COc1ccc(Cl)cc1C(=O)NCCc1ccc(S(=O)(=O)NC(=O)NC2CCCCC2)cc1` [GLYBURIDE] returned an EC50 in “cells” of 2.95 µM. Also, the Ki in [3] amounted to 0.66 µM.

For `O=c1cc(CCc2ccccc2)oc2c(O)cccc12`, the result in the assay filed under Homo sapiens was inactive.

`COc1ccc2oc(CCc3ccccc3)cc(=O)c2c1O`: the result in the assay listed under Homo sapiens was Active.

`O=c1cc(CCc2ccccc2O)oc2ccccc12`: the result in the assay filed under Homo sapiens was inactive.

In assay [8], `O=c1cc(CCc2ccccc2)oc2ccc(O)c(O)c12` returned an inhibition of 41.1%. For the same compound, the EC50 in “cells” is greater than 60 µM. Further, in [9], the “fold change (FC)” value is given as 1.97. The result in the assay listed under Homo sapiens was Active. Moreover, the Emax at 60 µM in [10] is 48%.

On to `O=C1C=C(CCc2ccccc2)OC2C1[C@@H]1O[C@@H]1[C@H](O)[C@H]2O` (relative stereo), for which the result in the assay filed under Homo sapiens was Active.

Consider `O=c1cc(CCc2ccccc2)oc2cccc(O)c12`, for which the outcome in the assay filed under Homo sapiens was Active.
